From patent US5140009A (Tap Pharmaceuticals, Inc., priority 1990, dated 1992)
Square brackets hold non-standard residues; d marks the D form. Peptide text beside a SMILES is read from it. * marks the point of attachment. Propanoyl(3-indol-3-yl) = O=C(CCc1c[nH]c2ccccc12)*; Butyryl(4-indol-3-yl) = O=C(CCCc1c[nH]c2ccccc12)*; Propanoyl(3,3-Ph2) = O=C(CC(c1ccccc1)c1ccccc1)*; Acetyl(1-naphthyl) = O=C(Cc1cccc2ccccc12)*; Acetyl(2-naphthyl) = O=C(Cc1ccc2ccccc2c1)*; Acetyl(3-pyridyl) = O=C(Cc1cccnc1)*; 1Naphthoyl = O=C(c1cccc2ccccc12)*; dCha = N[C@H](CC1CCCCC1)C(=O)O; X14 = O=C(CCn1ccc2ccccc21)*; X1 = COc1ccccc1C=CC(=O)*; PhAc = O=C(Cc1ccccc1)*; X2 = O=C(C=Cc1ccccc1)*; Bn = c1ccc(C*)cc1

Target: T1, LHRH receptors (Rattus norvegicus, UniProt P30969)
T1 construct: Pituitary membranes containing LHRH receptors are prepared in batches from quick-frozen rat pituitaries; tissue Hilltop Labs; host or cells: rat pituitary membranes
T1 sequence (P30969 1-327): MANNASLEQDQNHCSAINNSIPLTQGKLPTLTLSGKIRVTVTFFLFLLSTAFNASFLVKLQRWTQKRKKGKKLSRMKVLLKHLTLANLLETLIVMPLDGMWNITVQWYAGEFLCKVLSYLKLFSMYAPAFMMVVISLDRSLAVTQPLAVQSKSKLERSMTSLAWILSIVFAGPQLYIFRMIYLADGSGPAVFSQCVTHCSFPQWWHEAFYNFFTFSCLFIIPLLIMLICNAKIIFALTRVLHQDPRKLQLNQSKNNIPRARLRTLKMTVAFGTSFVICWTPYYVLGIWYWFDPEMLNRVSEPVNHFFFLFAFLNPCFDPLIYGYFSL
Assay: Receptor Binding (radioligand receptor binding assay)
Conditions: Receptor Binding pkI, table 3; rat pituitary membranes, radioiodinated [D-Leu^6 -des Gly^10 ]-LHRH ethyl amide 50 pM, 2 hours at 4° C.

Compound	Ki
CCNC(=O)[C@@H]1CCCN1C(=O)[C@H](CCCNC(=N)N)NC(=O)[C@H](CC(C)C)NC(=O)[C@@H](Cc1c[nH]c2ccccc12)NC(=O)[C@H](Cc1ccc(O)cc1)NC(=O)[C@H](CO)NC(=O)CC(c1ccccc1)c1ccccc1 [Compound 14, (4-9)[N-(3-Diphenylpropionyl)-Ser^4 -D-Trp^6 -Pro^9 -NHEt]LHRH] ({Propanoyl(3,3-Ph2)}-SY[dW]LRP-NHEt)	15.8 nM

Same assay, conditions: table 3; rat pituitary membranes, radioiodinated [D-Leu^6 -des Gly^10 ]-LHRH ethyl amide 50 pM, 2 hours at 4° C.; read-out: Receptor Binding pkI (converted)

Compound	Ki
CCNC(=O)[C@@H]1CCCN1C(=O)[C@H](CCCNC(=N)N)NC(=O)[C@H](CC(C)C)NC(=O)[C@@H](Cc1c[nH]c2ccccc12)NC(=O)[C@H](Cc1ccc(O)cc1)NC(=O)[C@H](CO)NC(=O)C(Cc1cccc2ccccc12)NC(C)=O (single isomer, unassigned) [Compound 82, (3-9)[N-Ac-1-Nal^3 -D-Trp^6 -Pro^9 NHEt]LHRH]	0.295 nM
CCNC(=O)[C@@H]1CCCN1C(=O)[C@H](CCCNC(=N)N)NC(=O)[C@H](CC(C)C)NC(=O)[C@@H](Cc1c[nH]c2ccccc12)NC(=O)[C@H](Cc1ccc(O)cc1)NC(=O)[C@H](CO)NC(=O)C(Cc1cccc2ccccc12)NC(C)=O (single isomer, unassigned) [Compound 83, (3-9) [N-Ac-1-Nal^3 -D-Trp^6 -Pro^9 NHEt]LHRH]	0.123 nM
CCNC(=O)[C@@H]1CCCN1C(=O)[C@H](CCCNC(=N)N)NC(=O)[C@H](CC(C)C)NC(=O)[C@@H](Cc1c[nH]c2ccccc12)NC(=O)[C@H](Cc1ccc(O)cc1)NC(=O)[C@H](CO)NC(=O)[C@H](Cc1c[nH]c2ccccc12)NC(=O)C(CC(=O)N1CCOCC1)Cc1cccc2ccccc12 (single isomer, unassigned) [Compound 130]	0.275 nM
CCNC(=O)[C@@H]1CCCN1C(=O)[C@H](CCCNC(=N)N)NC(=O)[C@H](CC(C)C)NC(=O)[C@@H](Cc1c[nH]c2ccccc12)NC(=O)[C@H](Cc1ccc(O)cc1)NC(=O)[C@H](CO)NC(=O)[C@H](Cc1c[nH]c2ccccc12)NC(=O)C(CC(=O)N1CCOCC1)Cc1cccc2ccccc12 (single isomer, unassigned) [Compound 131]	0.631 nM
CCNC(=O)[C@@H]1CCCN1C(=O)[C@H](CCCNC(=N)N)NC(=O)[C@H](CC(C)C)NC(=O)[C@@H](Cc1c[nH]c2ccccc12)NC(=O)[C@H](Cc1ccc(O)cc1)NC(=O)[C@H](COCc1ccccc1)NC(=O)Cc1ccc2ccccc2c1 [Compound 12, (4-9)[N-(2-Naphthylacetyl)-Ser^4 (OBzl)-D-Trp^6 -Pro^9 -NHEt]LHRH] ({Acetyl(2-naphthyl)}-S(Bn)Y[dW]LRP-NHEt)	1.23 nM
CCNC(=O)[C@@H]1CCCN1C(=O)[C@H](CCCNC(=N)N)NC(=O)[C@H](CC(C)C)NC(=O)[C@@H](Cc1c[nH]c2ccccc12)NC(=O)[C@H](Cc1ccc(O)cc1)NC(=O)[C@H](CO)NC(=O)C=Cc1ccccc1 [Compound 15, (4-9)[N-(cinnamoyl)-Ser^4 -D-Trp^6 -Pro^9 -NHEt] LHRH] (X2-SY[dW]LRP-NHEt)	7.76 nM
CCNC(=O)[C@@H]1CCCN1C(=O)[C@H](CCCNC(=N)N)NC(=O)[C@H](CC(C)C)NC(=O)[C@@H](Cc1c[nH]c2ccccc12)NC(=O)[C@H](Cc1ccc(O)cc1)NC(=O)[C@H](CO)NC(=O)C=Cc1ccccc1OC [Compound 16, (4-9)[N-(ortho-Methoxycinnamoyl)-Ser^4 -D-Trp^6 -Pro^9 -NHEt]LHRH] (X1-SY[dW]LRP-NHEt)	1.41 nM
CCNC(=O)[C@@H]1CCCN1C(=O)[C@H](CCCNC(=N)N)NC(=O)[C@H](CC(C)C)NC(=O)[C@@H](Cc1c[nH]c2ccccc12)NC(=O)[C@H](Cc1ccc(O)cc1)NC(=O)[C@H](CO)NC(=O)Cc1ccccc1 [Compound 17, (4-9)[N-(Phenylacetyl)-Ser^4 -D-Trp^6 -Pro^9-NHEt] LHRH] (PhAc-SY[dW]LRP-NHEt)	6.61 nM
CCNC(=O)[C@@H]1CCCN1C(=O)[C@H](CCCN=C(N)N)NC(=O)[C@H](CC(C)C)NC(=O)[C@@H](Cc1c[nH]c2ccccc12)NC(=O)[C@H](Cc1ccc(O)cc1)NC(=O)[C@H](CO)NC(=O)CCc1c[nH]c2ccccc12 [Compound 24, (4-9)[N-(3-(3-Indole)propionyl)-Ser^4 -D-Trp^6 -Pro^9 -NHEt] LHRH] ({Propanoyl(3-indol-3-yl)}-SY[dW]LRP-NHEt)	3.72 nM
CCNC(=O)[C@@H]1CCCN1C(=O)[C@H](CCCNC(=N)N)NC(=O)[C@H](CC(C)C)NC(=O)[C@@H](CC1CCCCC1)NC(=O)[C@H](Cc1ccc(O)cc1)NC(=O)[C@H](COCc1ccccc1)NC(=O)Cc1cccc2ccccc12 [Compound 33, (4-9)[N-(1-Naphthylacetyl)-Ser^4 (OBzl)-D-Cha^6 -Pro^9 -NHEt]LHRH] ({Acetyl(1-naphthyl)}-S(Bn)Y[dCha]LRP-NHEt)	13.8 nM
CCNC(=O)[C@@H]1CCCN1C(=O)[C@H](CCCNC(=N)N)NC(=O)[C@H](CC(C)C)NC(=O)[C@@H](CC1CCCCC1)NC(=O)[C@H](Cc1ccc(O)cc1)NC(=O)[C@H](CO)NC(=O)CCn1ccc2ccccc21 [Compound 34, (4-9)[N-(3-(1-Indole)propionyl)-Ser^4 -D-Cha^6 -Pro^9 -NHEt]LHRH] (X14-SY[dCha]LRP-NHEt)	41.7 nM
CCNC(=O)[C@@H]1CCCN1C(=O)[C@H](CCCNC(=N)N)NC(=O)[C@H](CC(C)C)NC(=O)[C@@H](CCCNC(=N)N)NC(=O)[C@H](Cc1ccc(O)cc1)NC(=O)[C@H](CO)NC(=O)CCc1c[nH]c2ccccc12 [Compound 35, (4-9)[N-(3-(3-Indole)propionyl)-Ser^4 -D-Arg^6 -Pro^9 -NHEt]LHRH] ({Propanoyl(3-indol-3-yl)}-SY[dR]LRP-NHEt)	204 nM
CCNC(=O)[C@@H]1CCCN1C(=O)[C@H](CCCNC(=N)N)NC(=O)[C@H](CC(C)C)NC(=O)[C@@H](CC1CCCCC1)NC(=O)[C@H](Cc1ccc(O)cc1)NC(=O)[C@H](CO)NC(=O)CCCc1c[nH]c2ccccc12 [Compound 36, (4-9)[N-(4-(3-Indole)butyryl)-Ser^4 -D-Cha^6 -Pro^9 -NHEt]LHRH] ({Butyryl(4-indol-3-yl)}-SY[dCha]LRP-NHEt)	17 nM
CCNC(=O)[C@@H]1CCCN1C(=O)[C@H](CCCNC(=N)N)NC(=O)[C@H](CC(C)C)NC(=O)[C@@H](CCCNC(=N)N)NC(=O)[C@H](Cc1ccc(O)cc1)NC(=O)[C@H](CO)NC(=O)Cc1cccc2ccccc12 [Compound 37, (4-9)[N-(1-Naphthylacetyl)-Ser^4 -D-Arg^6 -Pro^9 -NHEt] LHRH] ({Acetyl(1-naphthyl)}-SY[dR]LRP-NHEt)	20.4 nM
CCNC(=O)[C@@H]1CCCN1C(=O)[C@H](CCCNC(=N)N)NC(=O)[C@H](CC(C)C)NC(=O)[C@@H](CCCNC(=N)N)NC(=O)[C@H](Cc1ccc(O)cc1)NC(=O)[C@H](COCc1ccccc1)NC(=O)Cc1cccc2ccccc12 [Compound 38, (4-9)[N-(1-Naphthylacetyl)-Ser^4 (OBzl)-D-Arg^6 -Pro^9 -NHEt]LHRH] ({Acetyl(1-naphthyl)}-S(Bn)Y[dR]LRP-NHEt)	28.8 nM
CCNC(=O)[C@@H]1CCCN1C(=O)[C@H](CCCNC(=N)N)NC(=O)[C@H](CC(C)C)NC(=O)[C@@H](CCCNC(=N)N)NC(=O)[C@H](Cc1ccc(O)cc1)NC(=O)[C@H](CO)NC(=O)c1cccc2ccccc12 [Compound 39, (4-9)[N-(1-Naphthoyl)-Ser^4 -D Arg^6 -Pro^9 -NHEt] LHRH] (1Naphthoyl-SY[dR]LRP-NHEt)	117 nM
CCNC(=O)[C@@H]1CCCN1C(=O)[C@H](CCCNC(=N)N)NC(=O)[C@H](CC(C)C)NC(=O)[C@@H](CC(C)C)NC(=O)[C@H](Cc1ccc(O)cc1)NC(=O)[C@H](CO)NC(=O)Cc1cccnc1 [Compound 40, (4-9)[N-(3-Pyridylacetyl)-Ser4-D-Leu^6 -Pro^9 -NHEt] LHRH] ({Acetyl(3-pyridyl)}-SY[dL]LRP-NHEt)	4370 nM
